# Assay: logP by HPLC on a C18 phase inversion column, EEC Directive 79/831 Annex V.A8, method b) (HP1100, 5-95% acetonitrile in 1.70 min)
# Assay type: physicochemical
# Conditions: HPLC method b)
# Description: ^b) Note regarding the determination of the log P values and mass detection: The log P values given were determined in accordance with EEC Directive 79/831 Annex V.A8 by HPLC (High Performance Liquid Chromatography) on a phase inversion column (C18). HP1100; 50*4.6 Zorbax Eclipse Plus C18 1.8 micron; eluent A: acetonitrile (0.1% formic acid); eluent B: water (0.08% formic acid); linear gradient from 5% acetonitrile to 95% acetonitrile in 1.70 min, then 95% acetonitrile for a further 1.00 min; oven temperature 55° C.; flow: 2.0 ml/min. The mass detection is carried out via the mass detector Micromass ZQ2000 from Waters.
row,SMILES,logP
1,Cc1ccccc1CNC(=O)c1cc(NC(=O)c2c(C(F)(F)F)c(C(F)(F)C(F)(F)F)nn2C)ccc1Cl [Ik-305],3.89^b)
2,Cn1nc(C(F)(F)C(F)(F)F)c(C(F)(F)F)c1C(=O)Nc1ccc(Cl)c(C(=O)NC2CC2(F)F)c1 (centres unmarked) [Ik-6],3.33^b)
3,Cn1nc(C(F)(F)C(F)(F)F)c(C(F)(F)F)c1C(=O)Nc1ccc(Cl)c(C(=O)NCc2cc(F)ccc2F)c1 [Ik-54],3.84^b)
4,Cn1nc(C(F)(F)C(F)(F)F)c(C(F)(F)F)c1C(=O)Nc1ccc(Cl)c(C(=O)NCc2ccc(Cl)cc2)c1 [Ik-283],4.05^b)
5,Cc1csc(C(NC(=O)c2cc(NC(=O)c3c(C(F)(F)F)c(C(F)(F)C(F)(F)F)nn3C)ccc2Cl)C(F)(F)F)n1 (centres unmarked) [Ik-277],4.00^b)
6,C[C@H](NC(=O)c1cc(NC(=O)c2c(C(F)(F)F)c(C(F)(F)C(F)(F)F)nn2C)ccc1Cl)C(F)(F)F [Ik-294],3.63^b)
7,CC(O)CNC(=O)c1cc(NC(=O)c2c(C(F)(F)F)c(C(F)(F)C(F)(F)F)nn2C)ccc1Cl (centres unmarked) [Ik-33],2.65^b)
8,Cn1nc(C(F)(F)C(F)(F)F)c(C(F)(F)F)c1C(=O)Nc1ccc(Cl)c(C(=O)NCc2c(F)cccc2F)c1 [Ik-37],3.73^b)

# Assay: log P from HPLC-MS, no method note printed
# Assay type: physicochemical
# Conditions: method not given
row,chromatographic logP,SMILES
1,4.41,"CCOC(=O)c1cnc(C(F)(F)C(F)(F)F)nc1C(F)(F)C(F)(F)F [Ethyl 2,4-bis(pentafluoroethyl)pyrimidine-5-carboxylate]"
2,2.04,COC(=O)c1cc(OC(F)F)nn1C [Methyl-3-(difluoromethoxy)-1-methyl-1H-pyrazole-5-carboxylate]
3,3.82,COC(=O)c1cc(-c2ccc(C(F)(F)F)cc2)nn1C [Methyl 1-methyl-3-[4-(trifluoromethyl)phenyl]-1H-pyrazole-5-carboxylate]
4,2,"Cn1nc(OCC(F)(F)F)c(Cl)c1C(=O)O [4-Chloro-1-methyl-3-(2,2,2-trifluoroethoxy)-1H-pyrazole-5-carboxylic acid]"
5,3.14,"COC(=O)c1c(Br)c(OCC(F)(F)F)nn1C [Methyl 4-bromo-1-methyl-3-(2,2,2-trifluoroethoxy)-1H-pyrazole-5-carboxy late]"
6,5,Cn1nc(C(F)(F)C(F)(F)F)c(C(F)(F)F)c1SCc1ccccc1 [5-(Benzylsulphanyl)-1-methyl-3-(pentafluoroethyl)-4-(trifluoromethyl)-1H-pyrazole]
7,3.56,CCOC(=O)c1c(I)c(C2CC2)nn1C [Ethyl 3-cyclopropyl-4-iodo-1-methyl-1H-pyrazole-5-carboxylate]
8,1.52,Cn1nc(OC(F)F)c(Br)c1C(=O)O [4-Bromo-3-(difluoromethoxy)-1-methyl-1H-pyrazole-5-carboxylic acid]
9,0.72,Cn1nc(C(O)C2CC2)c(C(F)(F)F)c1C(=O)O (centres unmarked) [3-[Cyclopropyl(hydroxy)methyl]-1-methyl-4-(trifluoromethyl)-1H-pyrazole-5-carboxylic acid]
10,2.69,COC(=O)c1c(I)c(OC(F)F)nn1C [Methyl 3-(difluoromethoxy)-4-iodo-1-methyl-1H-pyrazole-5-carboxylate]
11,1.76,Cn1nc(C2CC2)c(Br)c1C(=O)O [4-Bromo-3-cyclopropyl-1-methyl-1H-pyrazole-5-carboxylic acid]
12,1.5,Cn1nc(OC(F)F)c(Cl)c1C(=O)O [4-Chloro-3-(difluoromethoxy)-1-methyl-1H-pyrazole-5-carboxylic acid]
13,2.33,Cc1nc(C(N)=O)c(C(F)(F)F)c(C(F)(F)C(F)(F)F)n1 [2-Methyl-6-(pentafluoroethyl)-5-(trifluoromethyl)pyrimidine-4-carboxamide]
14,3.05,CCOC(=O)c1c(C(F)(F)F)c(C(F)F)nn1C [Ethyl 3-(difluoromethyl)-1-methyl-4-(trifluoromethyl)-1H-pyrazole-5-carboxylate]
15,1.74,CCOC(=O)c1c(C(F)(F)F)c(CO)nn1C [Ethyl-3-(hydroxymethyl)-1-methyl-4-(trifluoromethyl)-1H-pyrazole-5-carboxylate]

# — US8946234B2, “Halogen-substituted compounds” (Bayer CropScience AG, priority 2008, dated 2015)
